# Data published in ChEMBL document CHEMBL4387773, “Identification of potent, selective and orally bioavailable phenyl ((R)-3-phenylpyrrolidin-3-yl)sulfone analogues as RORγt inverse agonists” (Bioorg Med Chem Lett, 2019).
# Target: T1, Nuclear receptor subfamily 1 group I member 2 (Homo sapiens, UniProt O75469)
# T1 sequence (O75469 whole entry): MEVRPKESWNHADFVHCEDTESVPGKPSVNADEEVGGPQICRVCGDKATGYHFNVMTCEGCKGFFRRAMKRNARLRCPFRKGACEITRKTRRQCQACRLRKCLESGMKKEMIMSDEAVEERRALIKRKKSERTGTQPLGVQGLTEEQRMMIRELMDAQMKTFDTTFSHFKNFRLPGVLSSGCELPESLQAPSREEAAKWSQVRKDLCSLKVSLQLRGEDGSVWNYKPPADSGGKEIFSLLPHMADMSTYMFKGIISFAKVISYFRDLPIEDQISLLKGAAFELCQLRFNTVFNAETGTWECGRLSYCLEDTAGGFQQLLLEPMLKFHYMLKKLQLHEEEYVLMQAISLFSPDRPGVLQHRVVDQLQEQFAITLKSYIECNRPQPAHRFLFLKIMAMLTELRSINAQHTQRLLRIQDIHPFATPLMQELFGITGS
# Assay: Transactivation of PXR (unknown origin) expressed in human HepG2 cells
# Assay type: cell-based
# Conditions: not given
row,Compound,EC50 [µM]
1,COC[C@]1(C(=O)N2CC[C@](c3ccc(C(F)(C(F)(F)F)C(F)(F)F)cc3)(S(=O)(=O)c3ccc(F)cc3)C2)CC[C@H](C(=O)O)CC1,> 50
2,NC(=O)[C@H]1CC[C@H](C(=O)N2CC[C@](c3ccc(C(F)(C(F)(F)F)C(F)(F)F)cc3)(S(=O)(=O)c3ccc(F)cc3)C2)CC1,> 50
3,O=C(O)C12CCC(C(=O)N3CC[C@](c4ccc(C(F)(C(F)(F)F)C(F)(F)F)cc4)(S(=O)(=O)c4ccc(F)cc4)C3)(CC1)OC2,> 50
4,O=C(N1CC[C@](c2ccc(C(F)(C(F)(F)F)C(F)(F)F)cc2)(S(=O)(=O)c2ccc(F)cc2)C1)C1(F)CCS(=O)(=O)CC1,> 50
5,C[C@]1(C(=O)O)CC[C@H](C(=O)N2CC[C@](c3ccc(C(F)(C(F)(F)F)C(F)(F)F)cc3)(S(=O)(=O)c3ccc(F)cc3)C2)CC1,> 50

# Target: T2, Oxysterols receptor LXR-beta (Homo sapiens, UniProt P55055)
# T2 sequence (P55055 whole entry): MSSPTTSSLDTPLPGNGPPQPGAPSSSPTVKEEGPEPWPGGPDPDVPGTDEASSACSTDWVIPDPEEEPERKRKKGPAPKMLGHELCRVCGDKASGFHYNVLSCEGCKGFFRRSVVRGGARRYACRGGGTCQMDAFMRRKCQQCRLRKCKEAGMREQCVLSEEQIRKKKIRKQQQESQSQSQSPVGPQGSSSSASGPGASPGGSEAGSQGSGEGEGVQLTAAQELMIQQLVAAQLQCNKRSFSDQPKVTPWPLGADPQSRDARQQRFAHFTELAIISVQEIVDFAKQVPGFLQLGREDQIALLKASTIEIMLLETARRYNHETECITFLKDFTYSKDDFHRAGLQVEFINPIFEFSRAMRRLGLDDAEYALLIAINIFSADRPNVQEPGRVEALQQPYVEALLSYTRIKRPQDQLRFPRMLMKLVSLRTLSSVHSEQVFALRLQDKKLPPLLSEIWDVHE
# Assay: Transactivation of human GAL4-fused LXRbeta expressed in African green monkey CV1 cells
# Assay type: cell-based
# Conditions: not given
row,Compound,EC50 [µM]
1,COC[C@]1(C(=O)N2CC[C@](c3ccc(C(F)(C(F)(F)F)C(F)(F)F)cc3)(S(=O)(=O)c3ccc(F)cc3)C2)CC[C@H](C(=O)O)CC1,> 7.5
2,NC(=O)[C@H]1CC[C@H](C(=O)N2CC[C@](c3ccc(C(F)(C(F)(F)F)C(F)(F)F)cc3)(S(=O)(=O)c3ccc(F)cc3)C2)CC1,> 7.5
3,O=C(O)C12CCC(C(=O)N3CC[C@](c4ccc(C(F)(C(F)(F)F)C(F)(F)F)cc4)(S(=O)(=O)c4ccc(F)cc4)C3)(CC1)OC2,> 7.5
4,O=C(N1CC[C@](c2ccc(C(F)(C(F)(F)F)C(F)(F)F)cc2)(S(=O)(=O)c2ccc(F)cc2)C1)C1(F)CCS(=O)(=O)CC1,> 7.5
5,C[C@]1(C(=O)O)CC[C@H](C(=O)N2CC[C@](c3ccc(C(F)(C(F)(F)F)C(F)(F)F)cc3)(S(=O)(=O)c3ccc(F)cc3)C2)CC1,> 7.5

# Target: T3, PXR (Homo sapiens, UniProt O75469)
# T3 sequence (O75469 whole entry): T1 sequence (O75469 whole entry)
# Assay: Transactivation of PXR (unknown origin) expressed in human HepG2 cells assessed as maximum receptor activation response relative to control
# Assay type: cell-based
# Conditions: human HepG2 cells that express PXR, read-out: %max
row,Compound,Emax [%]
1,COC[C@]1(C(=O)N2CC[C@](c3ccc(C(F)(C(F)(F)F)C(F)(F)F)cc3)(S(=O)(=O)c3ccc(F)cc3)C2)CC[C@H](C(=O)O)CC1,7
2,NC(=O)[C@H]1CC[C@H](C(=O)N2CC[C@](c3ccc(C(F)(C(F)(F)F)C(F)(F)F)cc3)(S(=O)(=O)c3ccc(F)cc3)C2)CC1,5
3,O=C(O)C12CCC(C(=O)N3CC[C@](c4ccc(C(F)(C(F)(F)F)C(F)(F)F)cc4)(S(=O)(=O)c4ccc(F)cc4)C3)(CC1)OC2,5
4,O=C(N1CC[C@](c2ccc(C(F)(C(F)(F)F)C(F)(F)F)cc2)(S(=O)(=O)c2ccc(F)cc2)C1)C1(F)CCS(=O)(=O)CC1,16
5,C[C@]1(C(=O)O)CC[C@H](C(=O)N2CC[C@](c3ccc(C(F)(C(F)(F)F)C(F)(F)F)cc3)(S(=O)(=O)c3ccc(F)cc3)C2)CC1,18

# Tested on: not listed separately
# Assay: Stability in mouse liver microsomes assessed as parent compound remaining after 10 mins
# Assay type: ADME, Microsome
# Conditions: liver microsomes, read-out: Stability
row,Compound,remaining at 10 min [%]
1,COC[C@]1(C(=O)N2CC[C@](c3ccc(C(F)(C(F)(F)F)C(F)(F)F)cc3)(S(=O)(=O)c3ccc(F)cc3)C2)CC[C@H](C(=O)O)CC1,88
2,NC(=O)[C@H]1CC[C@H](C(=O)N2CC[C@](c3ccc(C(F)(C(F)(F)F)C(F)(F)F)cc3)(S(=O)(=O)c3ccc(F)cc3)C2)CC1,100
3,O=C(O)C12CCC(C(=O)N3CC[C@](c4ccc(C(F)(C(F)(F)F)C(F)(F)F)cc4)(S(=O)(=O)c4ccc(F)cc4)C3)(CC1)OC2,94
4,O=C(N1CC[C@](c2ccc(C(F)(C(F)(F)F)C(F)(F)F)cc2)(S(=O)(=O)c2ccc(F)cc2)C1)C1(F)CCS(=O)(=O)CC1,90
5,C[C@]1(C(=O)O)CC[C@H](C(=O)N2CC[C@](c3ccc(C(F)(C(F)(F)F)C(F)(F)F)cc3)(S(=O)(=O)c3ccc(F)cc3)C2)CC1,93

# Target: T4, Nuclear receptor ROR-alpha (Homo sapiens, UniProt P35398)
# T4 sequence (P35398 whole entry): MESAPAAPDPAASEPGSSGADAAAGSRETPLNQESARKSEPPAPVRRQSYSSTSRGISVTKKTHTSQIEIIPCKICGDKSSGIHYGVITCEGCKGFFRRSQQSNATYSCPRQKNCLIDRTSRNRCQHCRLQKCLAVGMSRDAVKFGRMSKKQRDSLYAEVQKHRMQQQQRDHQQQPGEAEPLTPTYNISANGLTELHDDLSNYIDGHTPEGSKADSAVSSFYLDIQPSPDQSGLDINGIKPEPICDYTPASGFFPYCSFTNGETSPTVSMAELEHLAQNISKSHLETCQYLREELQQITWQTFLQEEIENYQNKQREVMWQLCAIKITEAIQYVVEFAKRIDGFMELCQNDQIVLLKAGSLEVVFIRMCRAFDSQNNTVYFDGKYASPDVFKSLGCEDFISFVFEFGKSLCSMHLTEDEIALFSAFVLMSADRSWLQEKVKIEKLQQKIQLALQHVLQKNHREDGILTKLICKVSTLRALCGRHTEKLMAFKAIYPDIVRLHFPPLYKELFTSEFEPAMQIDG
# Assay: Inverse agonist activity at human Gal4-fused RORalpha LBD (272 to 556 residues) expressed in human Jurkat cells measured after 18 hrs by steady-glo luciferase reporter gene assay
# Assay type: cell-based
# Conditions: not given
row,Compound,EC50 [µM]
1,COC[C@]1(C(=O)N2CC[C@](c3ccc(C(F)(C(F)(F)F)C(F)(F)F)cc3)(S(=O)(=O)c3ccc(F)cc3)C2)CC[C@H](C(=O)O)CC1,> 40
2,NC(=O)[C@H]1CC[C@H](C(=O)N2CC[C@](c3ccc(C(F)(C(F)(F)F)C(F)(F)F)cc3)(S(=O)(=O)c3ccc(F)cc3)C2)CC1,> 40
3,O=C(O)C12CCC(C(=O)N3CC[C@](c4ccc(C(F)(C(F)(F)F)C(F)(F)F)cc4)(S(=O)(=O)c4ccc(F)cc4)C3)(CC1)OC2,> 40
4,O=C(N1CC[C@](c2ccc(C(F)(C(F)(F)F)C(F)(F)F)cc2)(S(=O)(=O)c2ccc(F)cc2)C1)C1(F)CCS(=O)(=O)CC1,> 40
5,C[C@]1(C(=O)O)CC[C@H](C(=O)N2CC[C@](c3ccc(C(F)(C(F)(F)F)C(F)(F)F)cc3)(S(=O)(=O)c3ccc(F)cc3)C2)CC1,> 40

# Target: T5, Nuclear receptor ROR-beta (Homo sapiens, UniProt Q92753)
# T5 sequence (Q92753 whole entry): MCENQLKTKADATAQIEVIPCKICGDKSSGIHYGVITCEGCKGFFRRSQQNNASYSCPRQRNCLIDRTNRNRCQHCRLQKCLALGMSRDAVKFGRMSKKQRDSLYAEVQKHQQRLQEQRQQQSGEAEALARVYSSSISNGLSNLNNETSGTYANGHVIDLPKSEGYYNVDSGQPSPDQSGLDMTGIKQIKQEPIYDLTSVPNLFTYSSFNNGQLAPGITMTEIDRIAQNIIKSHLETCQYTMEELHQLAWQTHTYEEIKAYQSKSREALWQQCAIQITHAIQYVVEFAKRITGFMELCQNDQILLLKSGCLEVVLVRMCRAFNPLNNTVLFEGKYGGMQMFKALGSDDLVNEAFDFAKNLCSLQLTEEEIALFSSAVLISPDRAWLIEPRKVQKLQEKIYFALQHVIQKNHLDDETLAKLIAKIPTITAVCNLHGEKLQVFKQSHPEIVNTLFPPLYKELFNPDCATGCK
# Assay: Inverse agonist activity at human Gal4-fused RORbeta LBD (200 to 559 residues) expressed in human Jurkat cells measured after 18 hrs by steady-glo luciferase reporter gene assay
# Assay type: cell-based
# Conditions: not given
row,Compound,EC50 [µM]
1,COC[C@]1(C(=O)N2CC[C@](c3ccc(C(F)(C(F)(F)F)C(F)(F)F)cc3)(S(=O)(=O)c3ccc(F)cc3)C2)CC[C@H](C(=O)O)CC1,> 40
2,NC(=O)[C@H]1CC[C@H](C(=O)N2CC[C@](c3ccc(C(F)(C(F)(F)F)C(F)(F)F)cc3)(S(=O)(=O)c3ccc(F)cc3)C2)CC1,> 40
3,O=C(O)C12CCC(C(=O)N3CC[C@](c4ccc(C(F)(C(F)(F)F)C(F)(F)F)cc4)(S(=O)(=O)c4ccc(F)cc4)C3)(CC1)OC2,> 40
4,O=C(N1CC[C@](c2ccc(C(F)(C(F)(F)F)C(F)(F)F)cc2)(S(=O)(=O)c2ccc(F)cc2)C1)C1(F)CCS(=O)(=O)CC1,> 40
5,C[C@]1(C(=O)O)CC[C@H](C(=O)N2CC[C@](c3ccc(C(F)(C(F)(F)F)C(F)(F)F)cc3)(S(=O)(=O)c3ccc(F)cc3)C2)CC1,> 40

# Tested on: not listed separately
# Assay: Stability in human liver microsomes assessed as parent compound remaining after 10 mins
# Assay type: ADME, Microsome
# Conditions: liver microsomes, read-out: Stability
row,Compound,remaining at 10 min [%]
1,COC[C@]1(C(=O)N2CC[C@](c3ccc(C(F)(C(F)(F)F)C(F)(F)F)cc3)(S(=O)(=O)c3ccc(F)cc3)C2)CC[C@H](C(=O)O)CC1,100
2,NC(=O)[C@H]1CC[C@H](C(=O)N2CC[C@](c3ccc(C(F)(C(F)(F)F)C(F)(F)F)cc3)(S(=O)(=O)c3ccc(F)cc3)C2)CC1,100
3,O=C(O)C12CCC(C(=O)N3CC[C@](c4ccc(C(F)(C(F)(F)F)C(F)(F)F)cc4)(S(=O)(=O)c4ccc(F)cc4)C3)(CC1)OC2,90
4,O=C(N1CC[C@](c2ccc(C(F)(C(F)(F)F)C(F)(F)F)cc2)(S(=O)(=O)c2ccc(F)cc2)C1)C1(F)CCS(=O)(=O)CC1,100
5,C[C@]1(C(=O)O)CC[C@H](C(=O)N2CC[C@](c3ccc(C(F)(C(F)(F)F)C(F)(F)F)cc3)(S(=O)(=O)c3ccc(F)cc3)C2)CC1,97

# Target: T6, Oxysterols receptor LXR-alpha (Homo sapiens, UniProt Q13133)
# T6 sequence (Q13133 whole entry): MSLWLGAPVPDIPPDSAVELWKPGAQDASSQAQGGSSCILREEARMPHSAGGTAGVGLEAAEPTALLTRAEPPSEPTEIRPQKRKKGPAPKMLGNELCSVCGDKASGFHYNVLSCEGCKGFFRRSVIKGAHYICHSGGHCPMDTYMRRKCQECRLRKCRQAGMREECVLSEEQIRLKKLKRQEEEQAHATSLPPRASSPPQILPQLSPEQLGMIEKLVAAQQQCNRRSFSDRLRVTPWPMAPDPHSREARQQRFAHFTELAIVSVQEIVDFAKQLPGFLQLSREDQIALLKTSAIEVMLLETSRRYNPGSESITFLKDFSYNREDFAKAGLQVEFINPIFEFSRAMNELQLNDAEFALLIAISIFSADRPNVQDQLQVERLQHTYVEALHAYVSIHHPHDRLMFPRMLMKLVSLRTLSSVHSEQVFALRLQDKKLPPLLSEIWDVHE
# Assay: Transactivation of human GAL4-fused LXRalpha expressed in African green monkey CV1 cells
# Assay type: cell-based
# Conditions: not given
row,Compound,EC50 [µM]
1,COC[C@]1(C(=O)N2CC[C@](c3ccc(C(F)(C(F)(F)F)C(F)(F)F)cc3)(S(=O)(=O)c3ccc(F)cc3)C2)CC[C@H](C(=O)O)CC1,> 7.5
2,NC(=O)[C@H]1CC[C@H](C(=O)N2CC[C@](c3ccc(C(F)(C(F)(F)F)C(F)(F)F)cc3)(S(=O)(=O)c3ccc(F)cc3)C2)CC1,> 7.5
3,O=C(O)C12CCC(C(=O)N3CC[C@](c4ccc(C(F)(C(F)(F)F)C(F)(F)F)cc4)(S(=O)(=O)c4ccc(F)cc4)C3)(CC1)OC2,> 7.5
4,O=C(N1CC[C@](c2ccc(C(F)(C(F)(F)F)C(F)(F)F)cc2)(S(=O)(=O)c2ccc(F)cc2)C1)C1(F)CCS(=O)(=O)CC1,> 7.5
5,C[C@]1(C(=O)O)CC[C@H](C(=O)N2CC[C@](c3ccc(C(F)(C(F)(F)F)C(F)(F)F)cc3)(S(=O)(=O)c3ccc(F)cc3)C2)CC1,> 7.5
